Measurements taken from patent US20180125032A1, “Automated method and system for introducing Liquid iodine into drinking water” (priority 2010, published 2018).

What was measured:
[1] = Pets drinking iodinated water, observation for ill effects; type: in vivo, dogs and cats
[2] = Loss of I2 from water at room temperature (hydrolysis / out gassing); type: physicochemical
Experimental: The only significant anti-infective iodine species in water is molecular iodine (I2). In the pH range of 6.0<->7.0, I2 is favored when I2 is added directly into water. […] If the pH of the water is kept at about pH 6.0, I2 is favored, but if the pH is above 7.0, I2 will hydrolyze (3) to I^− and HOI and I3^− (7) can form and accumulate in the water. I have determined experimentally that I2 is lost from the water at room temperature at a linear rate of about 0.3 mcg/mL/hour when the pH of the water was adjusted to ˜pH5-5.5 with acetic acid to prolong survival of I2 in water. Thus after 24 hours >90% of the I2 is lost either to hydrolysis
or volatile I2 via out gassing. At higher pH, the iodine will dissipate faster or be converted to HOI. At neutral pH=7 the I2 loss is ˜0.5 mcg/mL/hr so that >90% is gone within 4 hours.

With `II` [I2, molecular iodine] the ill effects ([1]; dogs and cats followed for 3 weeks, 1-5 mcg/mL in drinking water) was “no ill effects were noted”, the “changes in pet behavior, food consumption or excretion” value ([1]; two 35 kg dogs and two 4 kg cats, drinking water with average about 5 mcg/mL I2, followed for 4 days) was “no obvious changes in pet behavior, food consumption or excretion” and the “I2 lost (hydrolysis or out gassing)” value ([2]; after 24 hours, ~pH5-5.5, room temperature) was greater than 90%. For the same compound, the I2 loss rate ([2]; neutral pH=7) was roughly 0.5 µg/mL/h, the “rate of I2 loss from the water (linear)” value ([2]; room temperature, water adjusted to ~pH5-5.5 with acetic acid) was “about 0.3 mcg/mL/hour” and the I2 gone ([2]; within 4 hours, neutral pH=7) was greater than 90%.
